Results on one compound are retold here after patent US8633204B2 (Pfizer Inc., priority 2006, dated 2014).

In experiment [1] the test system is PI3-K in BT20 cells (phosphorylation of AKT at serine 473). The experiment is described as follows: PI3-Kα Cellular Assay (AKT Ser473 phosphorylation ELISA in BT20 cells). Format: cell-based, human. To be noted: Homo sapiens, BT-20, pAKT Ser473 ELISA, 1 hour incubation. In a few lines:
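Cells seeded overnight in 0.5% FBS, then exposed 1 h at 37 °C to an 11-concentration 1:3 dilution series, in duplicate.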
For orientation: ELISA stands for enzyme-linked immunosorbent assay.

A further experiment deals with U87MG tumor model. The experiment is described as follows: Mouse xenograft efficacy study, U87MG. To be noted: for Growth Inhibition (%): U87 MG glioma xenograft. Format: in vivo. The protocol:
The in vivo efficacy of 2-amino-8-(trans-4-hydroxycyclohexyl)-6-(6-methoxypyridin-3-yl)-4-methylpyrido[2,3-d]pyrimidin-7(8H)-one (Compound 152) disclosed in Example 53 was examined in s.c. xenograft model. Human tumor cell lines PC3 (PTEN deletion)), U87MG (PTEN deletion) and SKOV3 (PI3Kα […]) were chosen for in vivo efficacy studies due to their different genetic background and relatively high levels of phospho AKT S473 signal. Cells were implanted in the hind flank of athymic mice and tumors grew in size to 100-200 mm^3 before daily oral treatment with Compound 152 was initiated. […] For all models tested 1 mg/kg was an efficacious dose.
Animal Care: Female and male athymic mice (6-8 weeks old) weighing ˜22 g were obtained from Charles River Laboratory. Animal were housed on a 12 h light/dark cycle in the Pfizer vivarium and all procedures are conducted in accordance with the Pfizer Institutional Animal Care and Use Committee (IACUC). Animals are provided free access to rodent chow and water ad libitum and maintained under clean room conditions. Prior to study start animals acclimate for at least 48 h.
Cell lines: All cell lines were cultured at 37° C. in humidified 5% CO2 incubator. U87 MG glioblastoma tumor cell line was obtained from American Type Culture Collection (ATCC) and cultured with DMEM supplemented with 15% FBS and 2 mM glutamine. PC3 prostate cancer cell line were obtained from National Cancer Institute and cultured in RPMI media supplemented with 10% FBS and 2 mM glutamine. SKOV3 ovarian cancer cells were obtained from ATCC and passaged multiple times through mice, and cultured in McCoy's 5A media supplemented with 10% FBS and 2 mM glutamine. All cell lines were tested by University of Missouri Research Animal Diagnostic Laboratory for known species of murine viruses and mycoplasma contamination.
Mouse Xenograft Models: U87MG (glioblastoma), PC3 (prostate cancer) and SKOV3 (ovarian cancer) cell lines in culture were harvested by trypsinisation. Briefly, 2.5−4×10^6 tumor cells were suspended in the medium used to culture each cell line without serum and implanted sub-cutaneously (s.c) into the hind flank region of mice on day 0. Daily treatment with Compound 152, formulated in 10% ethanol, 40% PEG and 50% sodium citrate buffer or vehicle alone commenced 10-14 d after implantation when average tumors were 100-200 mm^3 in size. Tumors were measured twice weekly and tumor volume was calculated as a product of (length×width^2)/2. Studies were typically terminated when the tumor in the vehicle treated animals reached a size of >1500 mm3 or when judged to adversely affect the well being of the animal. […] Where applicable, percent tumor regression for each group was calculated as 100×(tumor volumeinitial−tumor volumefinal)/(tumor volumeinitial). A cohort of 12 animals was used for each dose group for efficacy studies. A representative cohort of animals were sacrificed at the times indicated, tumors resected, and a blood sample taken from the cardiac left ventricle and immediately placed in a vial primed with heparin sulfate. Typically one half of the tumor was fixed in 10% neutral buffered formalin, paraffin embedded, and sectioned for immunohistochemistry. The other half was frozen in liquid nitrogen and later processed to generate cell lysates for target modulation studies.

The mark [2] stands for this setting: U87MG tumor model, daily oral treatment.

“Also recorded” adds a separate entry of the source.

Consider `COc1ccc(-c2cc3c(C)nc(N)nc3n([C@H]3CC[C@H](O)CC3)c2=O)cn1` [Compound 152, 2-amino-8-(trans-4-hydroxycyclohexyl)-6-(6-methoxypyridin-3-yl)-4-methylpyrido[2,3-d]pyrimidin-7(8H)-one], for which the IC50 (as a rule, the point on the concentration scale where inhibition reaches its midpoint) in experiment [1] stood at 3.6 nM. Further, the “Growth Inhibition (%)” value in the experiment with U87MG tumor model (0.1 mg/kg/day oral) was 18%; in the experiment on U87MG tumor model (0.3 mg/kg/day oral) it was 56%; with U87MG tumor model (1.0 mg/kg/day oral), 76%. Also, the anti-tumor efficacy entry with U87MG tumor model (setting [2]) was “dose-dependent anti-tumor efficacy; also recorded: growth inhibition”. Besides, the efficacious dose in the experiment with U87MG tumor model (setting [2]) is 1 mg/kg.
